Patent US20040152903A1, “6-chloro-3-pyridylmethylpropylamine derivatives, preparation process thereof and bactericides” (priority 2004, published 2004)

Experiments:
Botrytis cinerea = assay: Antifungal activity test (PDA plate, hypha extension inhibition); assay type: cell-based; conditions: 1.6 ppm in PDA culture medium
Method: (Antifungal Activity Test against Various Pathogenic Fungi) For each of the compounds I-1 to 27 of the present invention and the comparative compounds (a) to (d), (m-1) and (m-3), 20 mg was weighed and dissolved in 2 ml of dimethylsulfoxide, and a double dilution row in 10 steps was prepared by further using dimethylsulfoxide. A 0.6 ml portion of these solutions was each added to 60 ml of a PDA culture medium (potato-dextrose-agar culture medium) at about 60° C., they were well mixed in a 100 ml Erlenmeyer flask, the solution was poured into a schale and was solidified, the plate culture media containing the compounds according to the present invention with final concentrations of 100, 50.0, 25.0, 12.5, 6.3, 3.2, 1.6, 0.8, 0.4 and 0.2 mg/l were prepared. On the other hand, the specimen bacteria cultured on the plate culture media beforehand was punched by a 4 mm diameter cork borer, and was inoculated on the plate culture media containing the aforementioned chemicals. After the inoculation, the bacteria were cultured at the optimum growth temperature of each bacterium for 1 to 7 days (for this optimum growth temperature, LIST OF CULTURES 1996 Microorganisms 10th edition published by Fermentation Research Institute (Foundation) can be referred to.), and the growth of the bacteria was measured by the diameter of a colony. […] R=100(dc−dt)/dc (Equation 3) [wherein each symbol is shown as follows: R=Hypha extension inhibition rate (%), dc=Diameter of colony on no-treated plate, dt=Diameter of colony on chemical-treated plate.] The results obtained above was evaluated in 5 steps in accordance with the following examination scale. <Growth Inhibition> 5: Hypha extension inhibition rate of 90% or more 4: Hypha extension inhibition rate of from 70% to less than 90% 3: […] 2: […] In addition, the abbreviations in Table 10 are as follows: B.c: Botrytis cinerea

wheat powdery mildew [1] = assay: Test of control effect on wheat powdery mildew; assay type: in vivo; design: Control Value: scale not given here; conditions: wettable powder 125 mg/l, 100 liters/10 a, wheat seedlings (Nourin 64), examined 9th to 14th day after inoculation
Method: (Test of Control Effect on Wheat Powdery Mildew) Wettable powders were prepared from compounds of the present invention I-1 to I-27 and comparative compounds (a) to (d), (m-1) and (m-3). The obtained wettable powder was diluted and suspended with water to provide the predetermined concentration (125 mg/l), and was sprinkled onto seedlings of wheat (variety: “Nourin 64”) at the first to the second leaf period which were cultivated using square plastic pots (size: 6.4 cm×6.4 cm) in a rate of 100 liters/10 a (ares). After drying the sprinkled leaves with air, a suspension of wheat powdery mildew spores taken from infected leaves was inoculated by spraying onto the sprinkled leaves. They were supervised in a green house (temperature: 20 to 24° C., relative humidity: 20 to 70 RH). On the 9th to 14th day after the inoculation, the infection degree was examined according to the following scale and the control value of each compound was calculated by the following calculation equation 1. [table]

wheat powdery mildew [2] = assay: Permeable mobility fungicidal effect test in leaf section of wheat powdery mildew; assay type: in vivo; conditions: length of non-contracted area relative to compound (m-2); 200 mg/l, 0.5 μl applied to wheat leaf (Abukumawase)
Method: (Permeable Mobility Fungicidal Effect Test in Leaf Section of Wheat Powdery Mildew) In the test example 4, permeable mobility fungicidal effect test was performed on the leaf section of wheat powdery mildew with regard to the compounds I-1 to 27 according to the present invention and the comparative compounds (a) to (d), and (m-1) to (m-3) with the method described later. <Test Method> The compound in the form of a wettable powder obtained by Formulation 2 or the like was diluted and suspended with water to a predetermined concentration (200 mg/l), and 0.5 μl of the suspension was applied to a 2 to 3 cm leaf portion from the root of the three leaves of the 4th to 4.5th leaf period wheat (variety: Abukumawase) cultured by using a square plastic pot (size: 6.4 cm×6.4 cm). After these wheat leaves were subject to still standing in a glass house (temperature: 20 to 24° C., relative humidity: 20 to 70 RH) for one day, the spores of wheat powdery mildew were inoculated over the leaves by sprinkling the same with a brush from an infected leaf, a disease was contracted in the same glass house. The length of a non-contracted area generated from the applied portion to the direction of the leaf top was measured, and a relative mobility to the compound (m-2) was calculated with the following calculation […] by using the comparative compound (m-2) as a standard compound. Relative mobility=(Length of non-contracted area in each chemical section (cm)/Length of non-contracted area of compound (m-2) (cm)) (Equation 4)

cucumber powdery mildew = assay: Test of control effect on cucumber powdery mildew; assay type: in vivo; conditions: wettable powder 100 mg/l, 100 liters/10 a, cucumber (Sagamihanpakufushinari), examined 9th to 14th day after inoculation
Method: (Test of Control Effect on Cucumber Powdery Mildew) The wettable powders formulated by using each of the compounds I-1 to 27 according to the present invention and the comparative compounds (a) to (d), (m-1) and (m-3) were each diluted and suspended with water to a predetermined concentration (100 mg/l), the suspension was sprinkled over the first to the second leaf period cucumbers (variety: “[…]”) cultivated by using a square plastic pot (size: 6.4 cm×6.4 cm) in a rate of 100 liters/10 a (ares). After the sprinkled leaves were air-dried, the spores were inoculated over the leaves by sprinkling the same with a brush from an infected leaf, a disease was contracted in a glass house (temperature: 20 to 24° C., relative humidity: 20 to 70 RH). On the 9th to 14th day after the inoculation, the infection degree was examined according to the following scale and the control value of each compound was calculated by the following calculation equation 2: (Examination Scale) [table]

SMILES | Growth Inhibition B.c (1.6) (Botrytis cinerea) | Control Value (wheat powdery mildew [1]) | Relative Mobility (wheat powdery mildew [2]) | Control Value (cucumber powdery mildew) | inhibition at 1.6 ppm (Botrytis cinerea; read-out: Growth Inhibition B.c (1.6)) [%] | pest or weed control at 125 µg/mL (wheat powdery mildew [1]; Triticum aestivum) [%] | pest or weed control at 100 µg/mL (cucumber powdery mildew; Cucumis sativus) [%]
CC(Cc1cccc(C(F)(F)F)c1F)CN(C)Cc1ccc(Cl)nc1 (centres unmarked) [Compound I-7] | 4 (Hypha extension inhibition rate of from 70% to less than 90%) | 100 | 5 | 90 |  |  | 
CC(Cc1ccc(C(F)(F)F)cc1C(F)(F)F)CN(C)Cc1ccc(Cl)nc1 (centres unmarked) [Compound I-2] | 4 (Hypha extension inhibition rate of from 70% to less than 90%) | 100 | 3 | 100 |  |  | 
CC(Cc1cc(F)cc(C(F)(F)F)c1)CN(C)Cc1ccc(Cl)nc1 (centres unmarked) [Compound I-6] | 4 (Hypha extension inhibition rate of from 70% to less than 90%) | 100 | 5 | 100 |  |  | 
CC(Cc1ccc2c(c1)OC(F)(F)C(F)(F)O2)CN(C)Cc1ccc(Cl)nc1 (centres unmarked) [Compound I-26] | 4 (Hypha extension inhibition rate of from 70% to less than 90%) | 100 | 3 | 100 |  |  | 
CC(Cc1cc(Cl)cc(C(F)(F)F)c1)CN(C)Cc1ccc(Cl)nc1 (centres unmarked) [Compound I-5] | 4 (Hypha extension inhibition rate of from 70% to less than 90%) | 100 | 3 | 100 |  |  | 
CC(Cc1ccc(OC(F)F)cc1)CN(C)Cc1ccc(Cl)nc1 (centres unmarked) [Compound I-13] | 4 (Hypha extension inhibition rate of from 70% to less than 90%) | 100 | 9 | 100 |  |  | 
CC(Cc1c(F)c(F)c(C(F)(F)F)c(F)c1F)CN(C)Cc1ccc(Cl)nc1 (centres unmarked) [Compound I-11] | 4 (Hypha extension inhibition rate of from 70% to less than 90%) | 90 | 5 | 100 |  |  | 
CC(Cc1cc(C(F)F)cc(C(F)(F)F)c1)CN(C)Cc1ccc(Cl)nc1 (centres unmarked) [Compound I-4] | 4 (Hypha extension inhibition rate of from 70% to less than 90%) | 100 | 3 | 80 |  |  | 
CC(Cc1ccc(OC(F)(F)C(F)C(F)(F)F)cc1)CN(C)Cc1ccc(Cl)nc1 (centres unmarked) [Compound I-14] | 4 (Hypha extension inhibition rate of from 70% to less than 90%) | 100 | 7 | 100 |  |  | 
CC(Cc1cc(Cl)c(F)c(Cl)c1)CN(C)Cc1ccc(Cl)nc1 (centres unmarked) [Compound I-22] | 4 (Hypha extension inhibition rate of from 70% to less than 90%) | 100 | 3 | 100 |  |  | 
CC(Cc1ccc(Cl)c(OC(F)(F)F)c1)CN(C)Cc1ccc(Cl)nc1 (centres unmarked) [Compound I-15] | 4 (Hypha extension inhibition rate of from 70% to less than 90%) | 100 | 9 | 100 |  |  | 
COc1cccc(CC(C)CN(C)Cc2ccc(Cl)nc2)c1 (centres unmarked) [(m-3), 6-chloro-N-[3-(3-methoxyphenyl)-2-methylpropyl]-N-methyl-3-pyridylmethylamine, reference compound] |  |  |  |  | < 20 | 0 | 0
CC(Cc1cc(C(F)(F)F)ccc1C(F)(F)F)CN(C)Cc1ccc(Cl)nc1 (centres unmarked) [Compound I-3] | 4 (Hypha extension inhibition rate of from 70% to less than 90%) | 90 | 3 | 100 |  |  | 
CC(Cc1ccc2c(c1)OC(Cl)(Cl)O2)CN(C)Cc1ccc(Cl)nc1 (centres unmarked) [Compound I-25] | 4 (Hypha extension inhibition rate of from 70% to less than 90%) | 100 | 3 | 100 |  |  | 
CC(Cc1ccc(OC(F)(F)Br)c(Cl)c1)CN(C)Cc1ccc(Cl)nc1 (centres unmarked) [Compound I-19] | 4 (Hypha extension inhibition rate of from 70% to less than 90%) | 100 | 8 | 100 |  |  | 
CC(Cc1c(F)c(F)c(F)c(F)c1F)CN(C)Cc1ccc(Cl)nc1 (centres unmarked) [Compound I-23] | 4 (Hypha extension inhibition rate of from 70% to less than 90%) | 100 | 4 | 70 |  |  | 
CC(Cc1ccc2c(c1)C(F)(F)OC(F)(F)O2)CN(C)Cc1ccc(Cl)nc1 (centres unmarked) [Compound I-27] | 4 (Hypha extension inhibition rate of from 70% to less than 90%) | 100 | 3 | 100 |  |  | 
CC(Cc1ccc(OC(F)(F)F)c(Cl)c1)CN(C)Cc1ccc(Cl)nc1 (centres unmarked) [Compound I-18] | 5 (Hypha extension inhibition rate of 90% or more) | 100 | 8 | 100 |  |  | 
